What was measured:
[1] = tested on: B. subtilis 168; assay: Bliss interaction score (quartile over a dose matrix) (fitness difference); higher = more antagonism (negative = synergy)
How it was run: (§1)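 At entry into stationary phase, OD595 was recorded and divided by the robust mean of the no-drug wells on that plate, with any value above 1 set to 1. This gives the fitness measure used throughout. Single-drug fitness was inferred from combination data, and the Bliss score, observed minus product-expected fitness, is shown as quartiles across technical, biological and donor/recipient replicates.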

[2] = tested on: S. aureus DSM 20231; assay: as above
How it was run: as §1

[3] = tested on: S. pneumoniae D39V; assay: as above
How it was run: as §1

[4] = tested on: S. aureus Newman; assay: as above
How it was run: as §1

[5] = tested on: S. pneumoniae D39V; assay: fitness (endpoint OD595 vs no drug) (fraction); higher = more growth
How it was run: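 Bacterial growth was followed in 384-well plates seeded at OD595 0.01, with 30 µl per well, or 55 µl for S. pneumoniae, in TSB, LB Lennox or CY at 37 °C. OD595 was read every 30 min for 14 h, and each reading had the first reading subtracted as background. Fitness is the background-corrected optical density at entry into stationary phase divided by the robust mean of the no-drug control wells. This ratio is capped at 1.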
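For Bliss interaction score (quartile over a dose matrix) in this document: first quartile when negative (synergy) and third quartile when positive (antagonism).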

CC1(C)S[C@@H]2[C@H](NC(=O)[C@H](N)c3ccc(O)cc3)C(=O)N2[C@H]1C(=O)O [Amoxicillin] + Clc1ccc(COC(Cn2ccnc2)c2ccc(Cl)cc2Cl)c(Cl)c1 [Miconazole]
Conditions	Bliss interaction score
[1]	0.0957
[2]	0.0878
[3]	-0.0912
[4]	0.0536

fitness, [5]
Conditions	partner 1.073 µg/mL	partner 1.25 µg/mL	partner 2.145 µg/mL	partner 2.5 µg/mL	partner 4.29 µg/mL	partner 5 µg/mL
first compound 0.0008 µg/mL	≥ 1	–	0.881	–	0.882	–
first compound 0.0015 µg/mL	≥ 1	0.781	0.948	0.831	0.848	0.906
first compound 0.003 µg/mL	0.994	0.736	0.778	0.814	0.739	0.849

fitness, [5], one replicate
Conditions	partner 1.25 µg/mL	partner 2.5 µg/mL	partner 5 µg/mL
first compound 0.0008 µg/mL	0.89	0.799	0.987
first compound 0.006 µg/mL	0.355	0.264	0.395

CC1(C)S[C@@H]2[C@H](NC(=O)[C@H](N)c3ccc(O)cc3)C(=O)N2[C@H]1C(=O)O [Amoxicillin] + O=C1CN(/N=C/c2ccc([N+](=O)[O-])o2)C(=O)N1 [Nitrofurantoin]
Conditions	Bliss interaction score
[1]	-0.206
[2]	-0.0521
[3]	0.11
[4]	0.0375

fitness, [5]
Conditions	partner 1.285 µg/mL	partner 2 µg/mL	partner 2.57 µg/mL	partner 4 µg/mL	partner 8 µg/mL
first compound 0.0008 µg/mL	≥ 1	–	0.957	–	–
first compound 0.0015 µg/mL	0.92	0.906	0.962	0.897	0.903
first compound 0.003 µg/mL	0.909	0.859	0.922	0.868	0.875

fitness, [5], one replicate
Conditions	first compound 0.0008 µg/mL	first compound 0.0015 µg/mL	first compound 0.003 µg/mL	first compound 0.006 µg/mL
partner 2 µg/mL	0.93	–	–	0.43
partner 4 µg/mL	0.979	–	–	0.433
partner 5.14 µg/mL	0.928	0.921	0.857	–
partner 8 µg/mL	0.944	–	–	0.514

CO/N=C(\C(=O)N[C@@H]1C(=O)N2C(C(=O)[O-])=C(C[N+]3(C)CCCC3)CS[C@H]12)c1csc(N)n1 [Cefepime] + CCC(C)C1C(=O)NC(=C)C(=O)NC(C(=O)NC(CSCC(C(=O)N1)NC(=O)/C(=C/C)/NC(=O)C(C(C)CC)N)C(=O)NC2C(SCC(NC(=O)CNC(=O)C3CCCN3C2=O)C(=O)NC(CCCCN)C(=O)NC4C(SCC(NC(=O)CNC(=O)C(NC(=O)C(NC(=O)C(NC(=O)CNC4=O)C)CC(C)C)CCSC)C(=O)NC(CC(=O)N)C(=O)NC(CCSC)C(=O)NC(CCCCN)C(=O)NC5C(SCC6C(=O)NC(C(=O)NC(CSC(C(C(=O)N6)NC(=O)C(NC5=O)C)C)C(=O)NC(CO)C(=O)NC(C(C)CC)C(=O)NC(CC7=CN=CN7)C(=O)NC(C(C)C)C(=O)NC(=C)C(=O)NC(CCCCN)C(=O)O)CC8=CN=CN8)C)C)C)CC(C)C [Nisin]
main component drawn
Conditions	Bliss interaction score
[1]	-0.0465
[2]	-0.0745
[3]	-0.0526
[4]	-0.0777

[5], main component drawn
Conditions	fitness
first compound 0.007 µg/mL, partner 1.6 µg/mL	0.0039
first compound 0.007 µg/mL, partner 3.2 µg/mL	0.0024
first compound 0.007 µg/mL, partner 6.4 µg/mL	0.0023
first compound 0.0078 µg/mL, partner 0.4275 µg/mL	0.996
first compound 0.0078 µg/mL, partner 0.855 µg/mL	≥ 1
first compound 0.0078 µg/mL, partner 1.71 µg/mL	0.189
first compound 0.014 µg/mL, partner 1.6 µg/mL	0.0058
first compound 0.014 µg/mL, partner 3.2 µg/mL	0.0156
first compound 0.014 µg/mL, partner 6.4 µg/mL	0.0123
first compound 0.0155 µg/mL, partner 0.4275 µg/mL	0.996
first compound 0.0155 µg/mL, partner 0.855 µg/mL	0.974
first compound 0.0155 µg/mL, partner 1.71 µg/mL	0.126
first compound 0.028 µg/mL, partner 1.6 µg/mL	0.0484
first compound 0.028 µg/mL, partner 3.2 µg/mL	0.0251
first compound 0.028 µg/mL, partner 6.4 µg/mL	0.0152
first compound 0.031 µg/mL, partner 1.71 µg/mL	0.103

CO/N=C(\C(=O)N[C@@H]1C(=O)N2C(C(=O)[O-])=C(C[N+]3(C)CCCC3)CS[C@H]12)c1csc(N)n1 [Cefepime] + CN(C)C(=O)C(CCN1CCC(O)(c2ccc(Cl)cc2)CC1)(c1ccccc1)c1ccccc1 [Loperamide]
Conditions	Bliss interaction score
[1]	-0.171
[2]	0.156
[3]	-0.0863
[4]	0.0533

[5]
Conditions	fitness
first compound 0.007 µg/mL, partner 20 µg/mL	≥ 1
first compound 0.007 µg/mL, partner 40 µg/mL	≥ 1
first compound 0.007 µg/mL, partner 80 µg/mL	0.913
first compound 0.0078 µg/mL, partner 17.14 µg/mL	≥ 1
first compound 0.0078 µg/mL, partner 34.28 µg/mL	0.969
first compound 0.014 µg/mL, partner 20 µg/mL	≥ 1
first compound 0.014 µg/mL, partner 40 µg/mL	≥ 1
first compound 0.0155 µg/mL, partner 17.14 µg/mL	0.952
first compound 0.0155 µg/mL, partner 34.28 µg/mL	0.854
first compound 0.028 µg/mL, partner 20 µg/mL	0.911
first compound 0.028 µg/mL, partner 40 µg/mL	0.841

[5], partner 68.57 µg/mL, one replicate
Conditions	fitness
first compound 0.0078 µg/mL	≥ 1
first compound 0.0155 µg/mL	≥ 1
first compound 0.031 µg/mL	0.48

CO/N=C(\C(=O)N[C@@H]1C(=O)N2C(C(=O)[O-])=C(C[N+]3(C)CCCC3)CS[C@H]12)c1csc(N)n1 [Cefepime] + CO[C@H]1/C=C/O[C@@]2(C)Oc3c(C)c(O)c4c(O)c(c(/C=N/N5CCN(C)CC5)c(O)c4c3C2=O)NC(=O)/C(C)=C\C=C\[C@H](C)[C@H](O)[C@@H](C)[C@@H](O)[C@@H](C)[C@H](OC(C)=O)[C@@H]1C [Rifampicin]
Conditions	Bliss interaction score
[1]	0.118
[2]	0.136
[3]	0.0513
[4]	0.035

fitness, [5]
Conditions	first compound 0.007 µg/mL	first compound 0.014 µg/mL	first compound 0.0155 µg/mL	first compound 0.028 µg/mL	first compound 0.031 µg/mL
partner 0.025 µg/mL	≥ 1	0.992	–	0.93	–
partner 0.05 µg/mL	≥ 1	0.995	–	0.936	–
partner 0.1 µg/mL	0.477	0.47	0.325	0.222	0.208

fitness, [5], one replicate
Conditions	first compound 0.0078 µg/mL	first compound 0.0155 µg/mL	first compound 0.031 µg/mL
partner 0.025 µg/mL	0.884	0.779	0.31
partner 0.2 µg/mL	0	0	0

CO/N=C(\C(=O)N[C@@H]1C(=O)N2C(C(=O)[O-])=C(C[N+]3(C)CCCC3)CS[C@H]12)c1csc(N)n1 [Cefepime] + C[C@@H](O)[C@H]1C(=O)N2C(C(=O)O)=C(SCCNC=N)C[C@H]12 [Imipenem]
Conditions	Bliss interaction score
[1]	-0.106
[2]	-0.0424
[3]	0.068
[4]	0.155

fitness, [5]
Conditions	first compound 0.007 µg/mL	first compound 0.0078 µg/mL	first compound 0.014 µg/mL	first compound 0.0155 µg/mL	first compound 0.028 µg/mL	first compound 0.031 µg/mL
partner 0.005 µg/mL	0.987	–	0.979	–	0.92	–
partner 0.0065 µg/mL	–	1	–	0.971	–	0.39
partner 0.01 µg/mL	0.984	–	≥ 1	–	0.902	–
partner 0.013 µg/mL	–	≥ 1	–	0.98	–	0.495
partner 0.02 µg/mL	0.986	–	0.991	–	0.881	–
partner 0.026 µg/mL	–	0.995	–	0.915	–	0.325

CO/N=C(\C(=O)N[C@@H]1C(=O)N2C(C(=O)[O-])=C(C[N+]3(C)CCCC3)CS[C@H]12)c1csc(N)n1 [Cefepime] + C[C@H]1COc2c(N3CCN(C)CC3)c(F)cc3c(=O)c(C(=O)O)cn1c23 [Levofloxacin]
Conditions	Bliss interaction score
[1]	0.0275
[2]	0.0646
[3]	0.157
[4]	0.0639

fitness, [5]
Conditions	partner 0.1725 µg/mL	partner 0.2 µg/mL	partner 0.345 µg/mL	partner 0.4 µg/mL	partner 0.69 µg/mL	partner 0.8 µg/mL
first compound 0.007 µg/mL	–	0.996	–	0.951	–	0.779
first compound 0.0078 µg/mL	0.991	–	0.937	–	0.727	–
first compound 0.014 µg/mL	–	0.993	–	0.963	–	0.768
first compound 0.0155 µg/mL	0.928	–	0.924	–	0.62	–
first compound 0.028 µg/mL	–	0.935	–	0.861	–	0.516

CO/N=C(\C(=O)N[C@@H]1C(=O)N2C(C(=O)[O-])=C(C[N+]3(C)CCCC3)CS[C@H]12)c1csc(N)n1 [Cefepime] + Clc1ccc(COC(Cn2ccnc2)c2ccc(Cl)cc2Cl)c(Cl)c1 [Miconazole]
Conditions	Bliss interaction score
[1]	0.0393
[2]	-0.109
[3]	0.0753
[4]	-0.0643

[5]
Conditions	fitness
first compound 0.007 µg/mL, partner 1.25 µg/mL	0.985
first compound 0.007 µg/mL, partner 2.5 µg/mL	0.982
first compound 0.007 µg/mL, partner 5 µg/mL	0.965
first compound 0.0078 µg/mL, partner 1.073 µg/mL	≥ 1
first compound 0.0078 µg/mL, partner 2.145 µg/mL	≥ 1
first compound 0.0078 µg/mL, partner 4.29 µg/mL	0.948
first compound 0.014 µg/mL, partner 1.25 µg/mL	0.934
first compound 0.014 µg/mL, partner 2.5 µg/mL	0.969
first compound 0.014 µg/mL, partner 5 µg/mL	0.943
first compound 0.0155 µg/mL, partner 1.073 µg/mL	0.995
first compound 0.0155 µg/mL, partner 2.145 µg/mL	0.851
first compound 0.0155 µg/mL, partner 4.29 µg/mL	0.848
first compound 0.028 µg/mL, partner 1.25 µg/mL	0.87
first compound 0.028 µg/mL, partner 2.5 µg/mL	0.872
first compound 0.028 µg/mL, partner 5 µg/mL	0.861
first compound 0.031 µg/mL, partner 4.29 µg/mL	0.491

CO/N=C(\C(=O)N[C@@H]1C(=O)N2C(C(=O)[O-])=C(C[N+]3(C)CCCC3)CS[C@H]12)c1csc(N)n1 [Cefepime] + O=C1CN(/N=C/c2ccc([N+](=O)[O-])o2)C(=O)N1 [Nitrofurantoin]
Conditions	Bliss interaction score
[1]	-0.125
[2]	0.0422
[3]	0.188
[4]	0.0549

fitness, [5]
Conditions	first compound 0.007 µg/mL	first compound 0.0078 µg/mL	first compound 0.014 µg/mL	first compound 0.0155 µg/mL	first compound 0.028 µg/mL	first compound 0.031 µg/mL
partner 1.285 µg/mL	–	0.957	–	0.943	–	0.811
partner 2 µg/mL	0.988	–	0.979	–	0.912	–
partner 2.57 µg/mL	–	0.962	–	0.942	–	0.738
partner 4 µg/mL	0.991	–	0.955	–	0.887	–
partner 8 µg/mL	0.949	–	0.927	–	0.843	–

[5], partner 5.14 µg/mL, one replicate
Conditions	fitness
first compound 0.0078 µg/mL	0.959
first compound 0.0155 µg/mL	0.993
first compound 0.031 µg/mL	0.825

Source: the supplement of paper PMC10627819
